Assay results from article PMC4805166, “Synthetic Cyclolipopeptides Selective against Microbial, Plant and Animal Cell Targets by Incorporation of D-Amino Acids or Histidine” (PLoS ONE, 2016).
Values joined by “and” are separate entries in the source; they are usually repeats but may differ in a detail not shown here. Equal entries are not always repeated. Where two headings read alike, the source gives them in different places. Where a SMILES comes first, the peptide text is derived from it. Side-chain parts run from the residue outwards. [ ]: non-standard residue; d: D form. The star is where a group is joined. Hexanoyl = CCCCCC(=O)*; Butyryl = CCCC(=O)*

Columns and labels:
[1] = test system: Pseudomonas syringae pv. syringae EPS94; assay type: cell-based; conditions: 48 h
Summary of the method: (§1)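 Peptide dilutions (stocks 500–31.1 μM) mixed 1:10 with 10^8 CFU/mL bacterial suspension in TSB. Incubated 25 °C, OD600 read hourly for 48 h, triplicates, repeated twice. MIC: lowest concentration with no growth at end.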

[2] = test system: Xanthomonas axonopodis pv. vesicatoria 2133–2; assay type: cell-based; conditions: TSB, 25°C, 48 h, OD 600 nm; tested at 3.1, 6.2, 12.5, 25, 50 μM; three replicates, experiment repeated twice; MIC = lowest concentration with no growth
Summary of the method: as §1

[3] = test system: Erwinia amylovora PMV6076; assay: MIC, in vitro growth inhibition; assay type: cell-based; conditions: TSB, 25°C, 48 h, OD 600 nm; tested at 3.1, 6.2, 12.5, 25, 50 μM; three replicates, experiment repeated twice; MIC = lowest concentration with no growth
Summary of the method: as §1

[4] = test system: Fusarium oxysporum f. sp. lycopersici FOL 3 race 2; assay: MIC, antifungal growth inhibition; assay type: cell-based
Summary of the method: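 Microconidia are grown on PDA at 25 °C and adjusted to 10^4 conidia/mL. Peptide stocks of 500, 250, 125, 62.5 and 31.1 µM (stock, not final) are mixed with conidia in double-concentrated PDB with 0.003% chloramphenicol, in triplicate, and incubated at 20 °C. OD600 is read every 2 h for seven days, and MIC is the lowest concentration with no growth at the end.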

[5] = test system: X. axonopodis pv. vesicatoria; assay: Bactericidal activity (killing assay); assay type: cell-based, Xanthomonas axonopodis pv. vesicatoria; conditions: 5 μM peptide, LB broth, aliquots every 30 min during 3 h, viable counts; triplicates
Method: In a total volume of 5 mL, 4 mL of Luria-Bertani (LB) broth were mixed with 0.5 ml of a suspension of X. axonopodis pv. vesicatoria adjusted to 10^8 CFU mL^-1 and 0.5 mL of the peptide solution at 50 μM (final concentration at 5 μM). Aliquots of 500 μL were removed at 30-min intervals during 3 h and the appropriate dilutions were spread onto LB agar using a spiral plater (Eddy Jet; IUL instruments, Spain). Triplicates were performed and colonies were counted after 48 h of incubation at 25°C with an automatic counter (Flash and Go; IUL instruments, Spain) by incorporating the software CounterMat version 5.0.

[6] = test system: E. amylovora, P. syringae pv. syringae, X. axonopodis pv. vesicatoria and F. oxysporum; assay type: cell-based
Method: The following plant pathogenic bacterial strains were used: Erwinia amylovora PMV6076 (Institut National de la Recherche Agronomique, Angers, France), Pseudomonas syringae pv. syringae EPS94 (Institut de Tecnologia Agroalimentària, Universitat de Girona, Spain) and Xanthomonas axonopodis pv. vesicatoria 2133–2 (Instituto Valenciano de Investigaciones Agrarias, Valencia, Spain). All bacteria were stored in Luria Bertani (LB) broth supplemented with glycerol (20%) and maintained at -80°C. Bacteria were scrapped from LB agar after growing for 24–48 h at 25°C. The cell material was suspended in sterile water to obtain a suspension of 10^8 CFU mL^-1.
Fusarium oxysporum f. sp. lycopersici FOL 3 race 2 (ATCC 201829, American Type Culture Collection) was used as fungal pathogen. The strain was cultured on potato dextrose agar (PDA) plates (Difco) and microconidia were obtained after growth at 25°C. The concentration of conidia was determined using a hemacytometer and adjusted to 10^4 conidia mL^-1.
Lyophilized peptides were solubilized in sterile Milli-Q water to a final concentration of 1 mM and filter sterilized through a 0.22-μm pore filter. For minimum inhibitory concentration (MIC) assessment, dilutions of the compounds were made to obtain a stock concentration of […]. For antibacterial activity twenty microlitres of each dilution were mixed in a microtiter plate well with 20 μL of the corresponding suspension of the bacterial indicator, 160 μL of Trypticase Soy Broth (TSB) (BioMèrieux, France) to a total volume of 200 μL. For antifungal activity 20 μL of each stock solution were mixed in a microtiter plate well with 80 μL of the corresponding suspension of the fungal pathogen and 100 μL of double concentrated PDB to a total volume of 200 μL containing 0.003% w/v of choramphenicol.
Three replicates for each strain, compound and concentration were used. Microbial growth was determined by optical density measurement at 600 nm (Bioscreen C, Labsystem, Helsinki, Finland). For antibacterial activity microplates were incubated at 25°C with 20 sec shaking before hourly absorbance measurement for 48 h. For antifungal activity microplates were incubated at 20°C with 1 min shaking before absorbance measurement that were done every two hours during seven days. The experiment was repeated twice. The MIC was taken as the lowest compound concentration with no growth at the end of the experiment.

[7] = test system: erythrocyte suspensions of horse blood; conditions: horse erythrocytes 5% vol/vol, TRIS buffer pH 7.2, 1 h at 37°C, absorbance 540 nm, relative to melittin 100 μM, ± confidence interval (α = 0.05); for Hemolysis (%) 150 µM: 150 µM peptide; for Hemolysis (%) 250 µM: 250 µM peptide;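 on all read-outs here: Read-out is hemoglobin release into the supernatant, with a buffer-only blank subtracted as the 0% baseline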
tobacco leaves = assay: Phytotoxicity by infiltration of tobacco leaves; assay type: in vivo; conditions: 250 μM, 100 μL infiltrated into mesophyll of tobacco leaves, 48 h after infiltration; at least three inoculations
Method: Peptide solutions of 50, 100, 150 and 250 μM were infiltrated (100 μL) into the mesophylls of fully expanded tobacco leaves. Six independent inoculations were carried out in a single leaf, and at least three independent inoculations were performed per peptide and concentration randomly distributed in diferent leaves and plants. Control infiltrations with water (negative control) or mellitin (positive control) at the same molar concentration were performed. The appearance of symptoms on the leaves was followed for 48 h after infiltration and measured as a lesion diameter.

[8] = PDB with 0.003% chloramphenicol, 20°C, seven days, OD 600 nm, tested at 3.1, 6.2, 12.5, 25, 50 μM, three replicates, repeated twice

Compound	MIC Pss [1] [µM]	MIC Xav [2]	MIC Ea [3] [µM]	MIC Fo [4, 8] [µM]	Bactericidal activity (kinetics of survival) [5]	MIC against three pathogens ([6]; three of the four pathogens tested) [µM]	Hemolysis (%) 150 µM [7] [%]	Hemolysis (%) 250 µM [7] [%]	Phytotoxicity, size of the lesions (necrosis diameter) (tobacco leaves)	MIC Fo [4] [µM]	Antimicrobial activity, in words ([6]; authors' overall judgement over the pathogens tested)
CCCC(=O)NCCCC[C@@H]1NC(=O)[C@H](CCCCN)NC(=O)[C@H](CC(C)C)NC(=O)[C@H](CCCCN)NC(=O)[C@H](CCCCN)NC(=O)[C@H](CCC(N)=O)NC(=O)[C@H](CC(C)C)NC(=O)[C@H](CCCCN)NC(=O)[C@H](CCCCN)NC(=O)[C@H](Cc2ccccc2)NC1=O [BPC500, c(KKLKK(CO-C3H7)FKKLQ)] (cyclo(FKKLQKKLKK(Butyryl)))	6.2 to 12.5	<3.1 µM	12.5 to 25	<3.1	bactericidal activity	< 12.5	28 ± 5	38 ± 4	–	–	–
CCCCCC(=O)N[C@@H](CCCCN)C(=O)N[C@@H](CC(C)C)C(=O)NCCCC[C@@H]1NC(=O)[C@H](CCCCN)NC(=O)[C@H](CC(C)C)NC(=O)[C@H](CCCCN)NC(=O)[C@H](CCCCN)NC(=O)[C@H](CCC(N)=O)NC(=O)[C@H](CC(C)C)NC(=O)[C@H](CCCCN)NC(=O)[C@H](CCCCN)NC(=O)[C@H](Cc2c[nH]cn2)NC1=O [BPC676, c(KKLKK(LK-CO-nC5H11)HKKLQ)] (cyclo(HKKLQKKLKK([Leu-Lys-Hexanoyl])))	12.5 to 25	6.2 to 12.5 µM	25 to 50	3.1 to 6.2	bactericidal activity	–	3 ± 0.3	–	–	–	–
CCCCCC(=O)NCCCC[C@@H]1NC(=O)[C@H](CCC(N)=O)NC(=O)[C@H](CC(C)C)NC(=O)[C@H](CCCCN)NC(=O)[C@H](CCCCN)NC(=O)[C@@H](Cc2ccccc2)NC(=O)[C@H](CCCCN)NC(=O)[C@H](CCCCN)NC(=O)[C@H](CC(C)C)NC(=O)[C@H](CCCCN)NC1=O [BPC686, c(K(CO-nC5H11)KLKKfKKLQ)] (cyclo(K(Hexanoyl)KLKK[dF]KKLQ))	12.5 to 25	6.2 to 12.5 µM	25 to 50	12.5 to 25	bactericidal activity	–	10 ± 0.2	14 ± 0.4	–	–	–
CCCCCC(=O)NCCCC[C@@H]1NC(=O)[C@H](CCC(N)=O)NC(=O)[C@H](CC(C)C)NC(=O)[C@H](CCCCN)NC(=O)[C@H](CCCCN)NC(=O)[C@H](Cc2c[nH]cn2)NC(=O)[C@H](CCCCN)NC(=O)[C@H](CCCCN)NC(=O)[C@H](CC(C)C)NC(=O)[C@H](CCCCN)NC1=O [BPC688] (cyclo(HKKLQK(Hexanoyl)KLKK))	25 to 50	25 to 50 µM	>50	12.5 to 25	–	–	1 ± 2	1 ± 0.2	0–0.38 cm	–	–
CCCC(=O)NCCCC[C@H]1NC(=O)[C@H](CCC(N)=O)NC(=O)[C@H](CC(C)C)NC(=O)[C@H](CCCCN)NC(=O)[C@H](CCCCN)NC(=O)[C@H](Cc2ccccc2)NC(=O)[C@H](CCCCN)NC(=O)[C@H](CCCCN)NC(=O)[C@H](CC(C)C)NC(=O)[C@H](CCCCN)NC1=O [BPC706] (cyclo(FKKLQ[dK](Butyryl)KLKK))	6.2 to 12.5	3.1 to 12.5 µM and 6.2 to 12.5 µM	25 to 50	3.1 to 6.2	–	–	35 ± 3	46 ± 3	0–0.38 cm	3.1 to 6.2	–
CCCC(=O)NCCCC[C@@H]1NC(=O)[C@H](CCCCN)NC(=O)[C@H](CCC(N)=O)NC(=O)[C@H](CC(C)C)NC(=O)[C@H](CCCCN)NC(=O)[C@H](CCCCN)NC(=O)[C@H](Cc2ccccc2)NC(=O)[C@H](CCCCN)NC(=O)[C@H](CCCCN)NC(=O)[C@H](CC(C)C)NC1=O [BPC708] (cyclo(FKKLQKK(Butyryl)LKK))	12.5 to 25	6.2 to 12.5 µM	25 to 50	3.1 to 6.2	–	–	2 ± 0.5	3 ± 1	–	–	active
CCCC(=O)NCCCC[C@@H]1NC(=O)[C@H](CCCCN)NC(=O)[C@H](CCC(N)=O)NC(=O)[C@H](CC(C)C)NC(=O)[C@H](CCCCN)NC(=O)[C@H](CCCCN)NC(=O)[C@@H](Cc2ccccc2)NC(=O)[C@H](CCCCN)NC(=O)[C@H](CCCCN)NC(=O)[C@H](CC(C)C)NC1=O [BPC714, c(KK(CO-C3H7)LKKfKKLQ)] (cyclo(KK(Butyryl)LKK[dF]KKLQ))	25 to 50	12.5 to 25 µM	25 to 50	6.2 to 12.5	bactericidal activity	–	3 ± 1	3 ± 0.5	–	–	–
CCCC(=O)N[C@@H](CCCCN)C(=O)N[C@@H](CC(C)C)C(=O)NCCCC[C@@H]1NC(=O)[C@H](CCCCN)NC(=O)[C@H](CC(C)C)NC(=O)[C@H](CCCCN)NC(=O)[C@H](CCCCN)NC(=O)[C@H](CCC(N)=O)NC(=O)[C@H](CC(C)C)NC(=O)[C@H](CCCCN)NC(=O)[C@H](CCCCN)NC(=O)[C@H](Cc2c[nH]cn2)NC1=O [BPC728, c(KKLKK(LK-CO-C3H7)HKKLQ)] (cyclo(HKKLQKKLKK([Leu-Lys-Butyryl])))	12.5 to 25	6.2 to 12.5 µM	>50	<3.1	bactericidal activity	–	0	–	–	–	–
melittin [mellitin, reference compound]	–	–	–	–	–	–	–	–	around 2 cm	–	–
